Source: ChEMBL document CHEMBL1157550, “Incorporation of fluorinated phenylalanine generates highly specific inhibitor of proteasome's chymotrypsin-like sites” (J Med Chem, 2010)
Blank lines part the entries; values can stand above or below the compound they belong to.

Experiments:
[1] = biological target: T1, Proteasome component C5 (Homo sapiens) (UniProt P20618); experiment: Inhibition of 26S proteasome beta 1 in human HEK293 cell lysate assessed as residual activity at 1.5 uM after 1 hr; assay type: cell-free
T1 sequence (whole entry): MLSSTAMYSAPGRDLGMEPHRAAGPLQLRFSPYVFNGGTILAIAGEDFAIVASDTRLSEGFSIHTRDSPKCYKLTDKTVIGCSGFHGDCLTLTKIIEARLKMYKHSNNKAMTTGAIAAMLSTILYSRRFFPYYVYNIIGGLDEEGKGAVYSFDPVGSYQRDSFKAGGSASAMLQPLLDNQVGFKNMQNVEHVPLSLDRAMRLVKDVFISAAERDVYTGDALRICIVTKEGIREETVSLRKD

[2] = biological target: T1, Proteasome component C5 (Homo sapiens); experiment: Displacement of fluorescent labeled MV151 from 26S proteasome beta 1 in human HEK293 cell lysate assessed as residual activity at 100 uM after 1 hr by SDS-PAGE; assay type: cell-free
[3] = biological target: T1, Proteasome component C5 (Homo sapiens); experiment: Inhibition of 26S proteasome beta 1 in human HEK293 cell lysate assessed as residual activity at 0.167 uM after 1 hr; assay type: cell-free
[4] = biological target: Proteasome Macropain subunit (Homo sapiens) (UniProt P49721); experiment: Inhibition of 26S proteasome beta 2 in human HEK293 cell lysate assessed as residual activity at 0.167 uM after 1 hr; assay type: cell-free
Proteasome Macropain subunit (Homo sapiens), sequence (P49721 whole entry): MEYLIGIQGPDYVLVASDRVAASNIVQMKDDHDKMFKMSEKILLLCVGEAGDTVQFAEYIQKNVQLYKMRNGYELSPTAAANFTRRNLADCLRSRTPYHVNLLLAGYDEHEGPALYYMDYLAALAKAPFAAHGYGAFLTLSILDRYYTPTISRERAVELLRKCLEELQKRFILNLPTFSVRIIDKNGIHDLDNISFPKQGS

[5] = biological target: Proteasome subunit beta type-5 (Homo sapiens) (UniProt P28074); experiment: Inhibition of 26S proteasome beta 5 in human HEK293 cell lysate assessed as residual activity at 0.001 uM after 1 hr
[6] = biological target: Proteasome subunit beta type-5 (Homo sapiens) (UniProt P28074); experiment: Inhibition of 26S proteasome beta 5 in human HEK293 cell lysate assessed as residual activity at 0.002 uM after 1 hr
[7] = biological target: T1, Proteasome component C5 (Homo sapiens); experiment: Displacement of fluorescent labeled MV151 from 26S proteasome beta 1 in human HEK293 cell lysate assessed as residual activity at 1 uM after 1 hr by SDS-PAGE; assay type: cell-free
[8] = biological target: Proteasome Macropain subunit (Homo sapiens) (UniProt P49721); experiment: Inhibition of 26S proteasome beta 2 in human HEK293 cell lysate assessed as residual activity at 0.001 uM after 1 hr; assay type: cell-free
[9] = biological target: T1, Proteasome component C5 (Homo sapiens); experiment: Inhibition of 26S proteasome beta 1 in human HEK293 cell lysate assessed as residual activity at 0.5 uM after 1 hr; assay type: cell-free
[10] = biological target: T1, Proteasome component C5 (Homo sapiens); experiment: Inhibition of 26S proteasome beta 1 in human HEK293 cell lysate assessed as residual activity at 0.019 uM after 1 hr; assay type: cell-free
[11] = biological target: T1, Proteasome component C5 (Homo sapiens); experiment: (§1) Inhibition of 26S proteasome beta 1 in human HEK293 cell lysate assessed as residual activity at […] after 1 hr; assay type: cell-free
[12] = biological target: Proteasome subunit beta type-5 (Homo sapiens) (UniProt P28074); experiment: Inhibition of 26S proteasome beta 5 in human HEK293 cell lysate assessed as residual activity at 0.5 uM after 1 hr
[13] = biological target: Proteasome Macropain subunit (Homo sapiens) (UniProt P49721); experiment: Inhibition of 26S proteasome beta 2 in human HEK293 cell lysate assessed as residual activity at 13.5 uM after 1 hr; assay type: cell-free
[14] = biological target: T2, Proteasome Macropain subunit MB1 (Homo sapiens) (UniProt P28074); experiment: Displacement of fluorescent labeled MV151 from 26S proteasome beta 5 in human HEK293 cell lysate assessed as residual activity at 1 uM after 1 hr by SDS-PAGE; assay type: cell-free
T2 sequence (whole entry): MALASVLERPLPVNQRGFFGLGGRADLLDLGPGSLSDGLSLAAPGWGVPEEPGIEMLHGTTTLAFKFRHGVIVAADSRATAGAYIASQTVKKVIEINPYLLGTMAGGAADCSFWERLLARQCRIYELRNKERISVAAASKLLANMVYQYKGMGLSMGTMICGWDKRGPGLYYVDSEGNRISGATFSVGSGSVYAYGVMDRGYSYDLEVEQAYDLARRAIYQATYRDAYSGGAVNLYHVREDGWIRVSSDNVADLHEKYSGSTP

[15] = biological target: Proteasome Macropain subunit (Homo sapiens) (UniProt P49721); experiment: Inhibition of 26S proteasome beta 2 in human HEK293 cell lysate assessed as residual activity at 0.002 uM after 1 hr; assay type: cell-free
[16] = biological target: Proteasome Macropain subunit (Homo sapiens) (UniProt P49721); experiment: (§2) Inhibition of 26S proteasome beta 2 in human HEK293 cell lysate assessed as residual activity at […] after 1 hr; assay type: cell-free
[17] = biological target: T1, Proteasome component C5 (Homo sapiens); experiment: Inhibition of 26S proteasome beta 1 in human HEK293 cell lysate assessed as residual activity at 0.001 uM after 1 hr; assay type: cell-free
[18] = biological target: Proteasome Macropain subunit (Homo sapiens) (UniProt P49721); experiment: as §2; assay type: cell-free; remark: listed apart in the source
[19] = biological target: Proteasome Macropain subunit (Homo sapiens) (UniProt P49721); experiment: Inhibition of 26S proteasome beta 2 in human HEK293 cell lysate assessed as residual activity at 0.006 uM after 1 hr; assay type: cell-free
[20] = biological target: T1, Proteasome component C5 (Homo sapiens); experiment: as §1; assay type: cell-free; remark: listed apart in the source
[21] = biological target: Proteasome Macropain subunit (Homo sapiens) (UniProt P49721); experiment: Inhibition of 26S proteasome beta 2 in human HEK293 cell lysate assessed as residual activity at 0.019 uM after 1 hr; assay type: cell-free
[22] = biological target: T1, Proteasome component C5 (Homo sapiens); experiment: Inhibition of 26S proteasome beta 1 in human HEK293 cell lysate assessed as residual activity at 0.006 uM after 1 hr; assay type: cell-free
[23] = biological target: Proteasome Macropain subunit (Homo sapiens) (UniProt P49721); experiment: Displacement of fluorescent labeled MV151 from 26S proteasome beta 2 in human HEK293 cell lysate assessed as residual activity at 1 uM after 1 hr by SDS-PAGE; assay type: cell-free
[24] = biological target: Proteasome subunit beta type-5 (Homo sapiens) (UniProt P28074); experiment: Inhibition of 26S proteasome beta 5 in human HEK293 cell lysate assessed as residual activity at […] after 1 hr
[25] = biological target: Proteasome subunit beta type-5 (Homo sapiens) (UniProt P28074); experiment: Inhibition of 26S proteasome beta 5 in human HEK293 cell lysate assessed as residual activity at 0.006 uM after 1 hr
[26] = biological target: Proteasome Macropain subunit (Homo sapiens) (UniProt P49721); experiment: Displacement of fluorescent labeled MV151 from 26S proteasome beta 2 in human HEK293 cell lysate assessed as residual activity at 100 uM after 1 hr by SDS-PAGE; assay type: cell-free
[27] = biological target: T1, Proteasome component C5 (Homo sapiens); experiment: Inhibition of 26S proteasome beta 1 in human HEK293 cell lysate assessed as residual activity at 0.002 uM after 1 hr; assay type: cell-free
[28] = biological target: Proteasome subunit beta type-5 (Homo sapiens) (UniProt P28074); experiment: Inhibition of 26S proteasome beta 5 in human HEK293 cell lysate assessed as residual activity at 1.5 uM after 1 hr
[29] = biological target: Proteasome subunit beta type-5 (Homo sapiens) (UniProt P28074); experiment: Inhibition of 26S proteasome beta 5 in human HEK293 cell lysate assessed as residual activity at 0.167 uM after 1 hr
[30] = biological target: Proteasome subunit beta type-5 (Homo sapiens) (UniProt P28074); experiment: Inhibition of 26S proteasome beta 5 in human HEK293 cell lysate assessed as residual activity at 0.019 uM after 1 hr
[31] = biological target: Proteasome Macropain subunit (Homo sapiens) (UniProt P49721); experiment: Inhibition of 26S proteasome beta 2 in human HEK293 cell lysate assessed as residual activity at 1.5 uM after 1 hr; assay type: cell-free
[32] = biological target: Proteasome subunit beta type-5 (Homo sapiens) (UniProt P28074); experiment: Inhibition of 26S proteasome beta 5 in human HEK293 cell lysate assessed as residual activity at […] after 1 hr; remark: listed apart in the source
[33] = biological target: T2, Proteasome Macropain subunit MB1 (Homo sapiens); experiment: Displacement of fluorescent labeled MV151 from 26S proteasome beta 5 in human HEK293 cell lysate assessed as residual activity at 100 uM after 1 hr by SDS-PAGE; assay type: cell-free
[34] = biological target: T1, Proteasome component C5 (Homo sapiens); experiment: Inhibition of 26S proteasome beta 1 in human HEK293 cell lysate assessed as residual activity at 13.5 uM after 1 hr; assay type: cell-free
[35] = biological target: Proteasome Macropain subunit (Homo sapiens) (UniProt P49721); experiment: Inhibition of 26S proteasome beta 2 in human HEK293 cell lysate assessed as residual activity at 0.5 uM after 1 hr; assay type: cell-free
[36] = biological target: Proteasome subunit beta type-5 (Homo sapiens) (UniProt P28074); experiment: Inhibition of 26S proteasome beta 5 in human HEK293 cell lysate assessed as residual activity at 13.5 uM after 1 hr
[37] = biological target: Proteasome Macropain subunit (Homo sapiens) (UniProt P49721); experiment: Inhibition of 26S proteasome beta 2 in human HEK293 cell lysate assessed as residual activity at 9 uM after 1 hr; assay type: cell-free
[38] = biological target: Proteasome Macropain subunit (Homo sapiens) (UniProt P49721); experiment: Inhibition of 26S proteasome beta 2 in human HEK293 cell lysate assessed as residual activity at 0.11 uM after 1 hr; assay type: cell-free
[39] = biological target: Proteasome Macropain subunit (Homo sapiens) (UniProt P49721); experiment: Inhibition of 26S proteasome beta 2 in human HEK293 cell lysate assessed as residual activity at 3 uM after 1 hr; assay type: cell-free
[40] = biological target: T1, Proteasome component C5 (Homo sapiens); experiment: Inhibition of 26S proteasome beta 1 in human HEK293 cell lysate assessed as residual activity at 9 uM after 1 hr; assay type: cell-free
[41] = biological target: Proteasome subunit beta type-5 (Homo sapiens) (UniProt P28074); experiment: Inhibition of 26S proteasome beta 5 in human HEK293 cell lysate assessed as residual activity at 0.03 uM after 1 hr
[42] = biological target: Proteasome subunit beta type-5 (Homo sapiens) (UniProt P28074); experiment: Inhibition of 26S proteasome beta 5 in human HEK293 cell lysate assessed as residual activity at 3 uM after 1 hr
[43] = biological target: T1, Proteasome component C5 (Homo sapiens); experiment: Inhibition of 26S proteasome beta 1 in human HEK293 cell lysate assessed as residual activity at 0.03 uM after 1 hr; assay type: cell-free
[44] = biological target: Proteasome subunit beta type-5 (Homo sapiens) (UniProt P28074); experiment: Inhibition of 26S proteasome beta 5 in human HEK293 cell lysate assessed as residual activity at 9 uM after 1 hr
[45] = biological target: T1, Proteasome component C5 (Homo sapiens); experiment: Inhibition of 26S proteasome beta 1 in human HEK293 cell lysate assessed as residual activity at 3 uM after 1 hr; assay type: cell-free
[46] = biological target: Proteasome Macropain subunit (Homo sapiens) (UniProt P49721); experiment: Inhibition of 26S proteasome beta 2 in human HEK293 cell lysate assessed as residual activity at 0.03 uM after 1 hr; assay type: cell-free
[47] = biological target: Proteasome subunit beta type-5 (Homo sapiens) (UniProt P28074); experiment: Inhibition of 26S proteasome beta 5 in human HEK293 cell lysate assessed as residual activity at 1 uM after 1 hr
[48] = biological target: Proteasome subunit beta type-5 (Homo sapiens) (UniProt P28074); experiment: Inhibition of 26S proteasome beta 5 in human HEK293 cell lysate assessed as residual activity at 0.11 uM after 1 hr
[49] = biological target: Proteasome Macropain subunit (Homo sapiens) (UniProt P49721); experiment: Inhibition of 26S proteasome beta 2 in human HEK293 cell lysate assessed as residual activity at 1 uM after 1 hr; assay type: cell-free
[50] = biological target: T1, Proteasome component C5 (Homo sapiens); experiment: Inhibition of 26S proteasome beta 1 in human HEK293 cell lysate assessed as residual activity at 1 uM after 1 hr; assay type: cell-free
[51] = biological target: T1, Proteasome component C5 (Homo sapiens); experiment: Inhibition of 26S proteasome beta 1 in human HEK293 cell lysate assessed as residual activity at 0.11 uM after 1 hr; assay type: cell-free

Activity [1]: 104%
Activity [2]: 80%
Activity [3]: 85.7%
Activity [4]: 98.4%
Activity [5]: 116%
Activity [6]: 101%
Activity [7]: 167%
Activity [8]: 118%
Activity [9]: 104%
Activity [10]: 94.7%
Activity [11]: 116%
Activity [12]: 20.5%
Activity [13]: 73.4%
Activity [14]: 78%
Activity [15]: 104%
Activity [16]: 92.9%
Activity [17]: 112%
Activity [18]: 105%
Activity [19]: 100%
Activity [20]: 90.3%
Activity [21]: 100%
Activity [22]: 96.9%
Activity [23]: 3.1%
Activity [24]: 11%
Activity [25]: 93.5%
Activity [26]: 128%
Activity [27]: 92.8%
Activity [28]: 9.8%
Activity [29]: 44.3%
Activity [30]: 94.4%
Activity [31]: 113%
Activity [32]: 70.5%
Activity [33]: 3%
Activity [34]: 61.3%
Activity [35]: 110%
Activity [36]: 5.1%
SMILES: CC(C)C[C@H](NC(=O)[C@H](Cc1ccccc1)NC(=O)[C@H](Cc1cc(C(F)(F)F)cc(C(F)(F)F)c1)NC(=O)[C@H](Cc1ccccc1)N=[N+]=[N-])C(=O)[C@@]1(C)CO1

Activity [37]: 102%
Activity [38]: 134%
Activity [39]: 141%
Activity [40]: 100%
Activity [41]: 89.7%
Activity [16]: 106%
Activity [20]: 98.4%
Activity [42]: 18%
Activity [43]: 101%
Activity [44]: 8.3%
Activity [24]: 45.8%
Activity [45]: 120%
Activity [46]: 117%
Activity [47]: 25.3%
Activity [48]: 76.5%
Activity [49]: 124%
Activity [50]: 107%
Activity [51]: 111%
SMILES: CC1=CC(C)=[N+]2C1=C(CCCCc1cn([C@@H](Cc3ccccc3)C(=O)N[C@@H](Cc3ccccc3)C(=O)N[C@@H](Cc3c(F)c(F)c(F)c(F)c3F)C(=O)N[C@@H](CC(C)C)C(=O)[C@@]3(C)CO3)nn1)c1c(C)cc(C)n1[B-]2(F)F
